Experimental data: US20240140931A1, “TRICYCLIC COMPOUNDS AND USES THEREOF” (HUTCHMED LIMITED, priority 2021, published 2024)

How the values were obtained:
[1] = target: Human full-length SHP2 recombinant protein (Homo sapiens (Human), UniProt Q06124); assay: Assay of full-length SHP2 phosphatase activity; assay type: biochemical; conditions: DiFMUP substrate, with activating peptide
Summary of the method: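 Readout: DiFMUP hydrolysis fluorescence (355/460 nm) after 60 min at 25 °C, following 30 min RT preincubation of compound with peptide-activated full-length human SHP2. Controls were 1% DMSO with or without enzyme; IC50 by four-parameter logistic fit.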

[2] = test system: pERK1/2 (Thr202/Tyr204) in Miapaca2 cells; assay: Assay of intracellular pERK1/2 (Thr202/Tyr204) phosphorylation; assay type: cell-based; conditions: pERK1/2 (Thr202/Tyr204) HTRF
Summary of the method: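 HTRF read-out (665/615 nm) of phospho-ERK1/2 Thr202/Tyr204 in lysates from Miapaca2 cells exposed for 2 h to 3-fold compound dilutions at 0.5% final DMSO. Controls: lysis buffer without cells and DMSO-treated cells; IC50 from four-parameter logistic fit.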

Miapaca2 3D spheroids = assay: Assay of cell proliferation on Miapaca2 3D spheroids; assay type: cell-based; conditions: CellTiter-Glo 3D, 5 days treatment
Method: Example 4 Assay of Cell Proliferation on Miapaca2 3D Spheroids
1. Reagents and Materials • CellTiter-Glo® 3D Cell Viability Assay Kit: Promega, Cat #G9683; • CellCarrier Spheroid ULA 96-well plate: Corning, Cat #4515; • Instrument: Envision, Perkinelmer; • Cell line: Miapaca2, ATCC, Cat #CRL-1420.
2. Preparation of Reaction Solutions • The test compound was dissolved in DMSO and diluted with DMSO to 3000.0 μM, and the compound was further 3-fold diluted with DMSO to: 1000.0, 333.3, 111.1, 37.0, 12.3, 4.1, and 1.4 μM. Then 2 μL of the compound at different dilution concentrations was added to 198 μL of a 1640 medium to prepare a 10× test compound, wherein DMSO was at the concentration of 1% (DMSO was at the final concentration of 0.1%).
3. Experimental Methods • Day0: Digest cells and count cell numbers. Miapaca2 cells were inoculated into a spheroid ULA 96-well plate at a density of 300 cells/well at 100 μL/well and cultured in a cell incubator at 5% CO2 and 37° C. • Day2: The cell spheroids formed at day2. Add 10 μL of 10× test compounds to the 96-well plate. To the cell positive control well was added 10 μL of 1% DMSO 1640 medium. Incubate the cell spheroids in a cell incubator at 5% CO2 and 37° C. for additional 5 days. • Cell viability assay: Add 50 μL of CellTiter-Glo reagent to each well, place the plate in a microplate shaker, and lysis under shaking at 900 rpm at room temperature for 5 minutes. Then incubate the plate at room temperature in the dark for 30 minutes. • The luminescene of each well was detected on Envision2104.
Cell Survial %=(Lum(d7 treatment)−Lum(d2 cell))/(Lum(d7 cell)−Lum(d2 cell))×100
Wherein: • Lum(d7 treatment) refers to the luminescene of the test compound treated cells on day7; • Lum(d2 cell) refers to the luminescene of the 0.1% DMSO treated Miapaca2 cells on day2; • Lum(d7 cell) refers to the luminescene of the 0.1% DMSO treated Miapaca2 cells on day7. • IC50 values were calculated following formula 205: y=A+((B−A)/(1+((C/X)^D))), by using the XL-Fit 5.0 software.

[3] = Homo sapiens, MIA PaCa-2, 120 h

SMILES | IC50 [1] [nM] | IC50 ([2]; 2 hours) [nM] | IC50 (Miapaca2 3D spheroids) [nM] | IC50 ([2]; Homo sapiens, MIA PaCa-2, 2 h) [nM] | IC50 (Miapaca2 3D spheroids; [3]) [nM]
C#Cc1ccc2c(c1)[C@@H](N)C1(CCN(c3cc(=O)n(-c4ccc(F)c(OC)c4Cl)c(C)n3)CC1)C2 [Compound 157] | 2 | 25 | 28 | – | –
C#Cc1cc(F)c2c(c1)[C@@H](N)C1(CCN(c3nc(C)n(-c4cccc(Cl)c4Cl)c(=O)c3C)CC1)C2 [Compound 168] | 10 | – | – | 34 | 77
C#Cc1ccc2c(c1)[C@@H](N)C1(CCN(c3ncc(Sc4ccnc(N)c4Cl)c(=O)n3C)CC1)O2 [Compound 295] | 2 | – | – | 22 | 4
CC#Cc1ccc2c(c1)[C@@H](N)C1(CCN(c3nc(N)c(-c4cn(C)c5ncccc45)c(=O)n3C)CC1)C2 [Compound 286] | 2 | – | – | 10 | 9
CNC(=O)C#Cc1ccc2c(c1)[C@@H](N)C1(CCN(c3cnc(Sc4cc(N)nc(Cl)c4Cl)cn3)CC1)C2 [Compound 254] | 3 | – | – | 11 | 10
C#Cc1ccc2c(c1)[C@@H](N)C1(CCN(c3ncc(Sc4ccnc(N)c4Cl)n4ncnc34)CC1)C2 [Compound 179] | 4 | – | – | 112 | 65
CCNC(=O)C#Cc1ccc2c(c1)[C@@H](N)C1(CCN(c3cnc(N4CCCc5ncccc54)nn3)CC1)C2 [Compound 244] | 11 | – | – | 139 | 41
CCNC(=O)C#Cc1ccc2c(c1)[C@@H](N)C1(CCN(c3nc(N)c(Sc4ccnc(N)c4Cl)nc3C)CC1)C2 [Compound 219] | 3 | – | – | 7 | 6
C#Cc1ccc2c(c1)[C@@H](N)C1(CCN(c3nc(N)c(-c4cn(C)c5ncccc45)c(=O)n3C)CC1)C2 [Compound 284] | 2 | – | – | 5 | 4
Cc1nc(N2CCC3(CC2)Cc2ccc(C#CC(N)=O)cc2[C@H]3N)cnc1Sc1cc(N)nc(Cl)c1Cl [Compound 280] | 11 | – | – | 35 | 35

Compounds with a lower IC50 [1], results first:

IC50 [1] [nM] | IC50 ([2]; 2 hours) [nM] | IC50 (Miapaca2 3D spheroids) [nM] | IC50 ([2]; Homo sapiens, MIA PaCa-2, 2 h) [nM] | IC50 (Miapaca2 3D spheroids; [3]) [nM] | SMILES
1.7 | – | – | 9 | 0.9 | CCNC(=O)C#Cc1ccc2c(c1)[C@@H](N)C1(CCN(c3cnc(Sc4cccnc4C(F)(F)F)c(N)n3)CC1)C2 [Compound 235]
1.5 | – | – | 18 | 5 | CNC(=O)C#Cc1ccc2c(c1)[C@@H](N)C1(CCN(c3nc(N)c(Sc4ccnc(N)c4Cl)nc3Br)CC1)C2 [Compound 240, (S)-3-(1-amino-1′-(6-amino-5-((2-amino-3-chloropyridin-4-yl)thio)-3-bromopyrazin-2-yl)-1,3-dihydrospiro[indene-2,4′-piperidin]-6-yl)-N-methylpropiolamide]
1.3 | – | – | 3 | 1 | CNC(=O)C#Cc1ccc2c(c1)[C@@H](N)C1(CCN(c3cnc(Sc4cccnc4C(F)(F)F)c(N)n3)CC1)C2 [Compound 236]
1 | 15 | – | – | 63 | CC#Cc1ccc2c(c1)[C@@H](N)C1(CCN(c3cc(=O)n(-c4ccc(F)c(Cl)c4Cl)c(C)n3)CC1)C2 (atropisomer, axis not shown) [Compound 221]
1 | 23 | – | – | 18 | CNC(=O)C#Cc1ccc2c(c1)[C@@H](N)C1(CCN(c3cc(=O)n(-c4cccc(OC)c4Cl)c(C)n3)CC1)C2 (atropisomer, axis not shown) [Compound 182]
1 | – | – | 11 | 5 | Cc1nc(N2CCC3(CC2)Cc2ccc(C#CC(N)=O)cc2[C@H]3N)cnc1Sc1ccnc(N)c1Cl [Compound 277]
0.7 | – | – | 13 | 2 | CNC(=O)C#Cc1ccc2c(c1)[C@@H](N)C1(CCN(c3cnc(Sc4cccnc4C(F)(F)F)cn3)CC1)C2 [Compound 242]
0.4 | – | – | 5 | 1 | CN(C)C(=O)C#Cc1ccc2c(c1)[C@@H](N)C1(CCN(c3cnc(Sc4ccnc(N)c4Cl)cn3)CC1)C2 [Compound 302]
